Test results reported in PubChem BioAssay AID330 (DTP/NCI, 2004).
Toxic doses and inconclusive results are not listed.

Test system: P388 leukemia ip, CD2F1 mice, survival T/C
Experiment: NCI In Vivo Anticancer Drug Screen. Data for tumor model P388 Leukemia (intraperitoneal) in CD2F1 (CDF1) mice
Details: endpoint: median survival time, higher = longer survival
Summary of the method: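 Mice carrying the transplanted tumor received test compound or vehicle. Survival was recorded in each group, and the value is the treated-group measurement divided by that of the vehicle-treated control group.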

[1] = dose: 60.0 mg/kg/injection, schedule: Q01DX005 (ip), vehicle: saline with Tween-80
[2] = dose: 120.0 mg/kg/injection, schedule: Q01DX005 (ip), vehicle: saline with Tween-80
[3] = dose: 50.0 mg/kg/injection, schedule: Q01DX005 (ip), vehicle: saline
[4] = dose: 100.0 mg/kg/injection, schedule: Q01DX005 (ip), vehicle: saline
[5] = dose: 200.0 mg/kg/injection, schedule: Q01DX005 (ip), vehicle: saline
[6] = dose: 100.0 mg/kg/injection, schedule: Q01DX009 (ip), vehicle: saline with Tween-80
[7] = dose: 200.0 mg/kg/injection, schedule: Q01DX009 (ip), vehicle: saline with Tween-80

For `C[C@@H]1O[C@H]2O[C@@H]3[C@@H](C)O[C@@H](c4ccc5c(c4O)C(=O)c4ccc(C[C@@](C)(O)CC(=O)O)c(O)c4C5=O)C[C@H]3O[C@H]2CC1=O`, the T/C (dose: 23.5 mg/kg/injection, schedule: Q01DX005 (ip), vehicle: Klucel (hydroxypropylcellulose) (HPC)) was 105 % of control, the T/C (dose: 47.0 mg/kg/injection, schedule: Q01DX005 (ip), vehicle: Klucel (hydroxypropylcellulose) (HPC)) was 105 % of control and the T/C (dose: 94.0 mg/kg/injection, schedule: Q01DX005 (ip), vehicle: Klucel (hydroxypropylcellulose) (HPC)) was 97 % of control.
For `C=CCCCCCCCCCSC(=N)N`, the T/C (dose: 6.25 mg/kg/injection, schedule: Q01DX009 (ip), vehicle: Klucel (hydroxypropylcellulose) (HPC)) was 98 % of control, the T/C (dose: 12.5 mg/kg/injection, schedule: Q01DX009 (ip), vehicle: Klucel (hydroxypropylcellulose) (HPC)) was 93 % of control and the T/C (dose: 25.0 mg/kg/injection, schedule: Q01DX009 (ip), vehicle: Klucel (hydroxypropylcellulose) (HPC)) was 99 % of control.
With `CCn1c(=NC(=O)c2ccccc2O)ccn1C` the T/C (dose: 60.0 mg/kg/injection, schedule: Q01DX005 (ip), vehicle: Klucel (hydroxypropylcellulose) (HPC)) was 95 % of control, the T/C (dose: 120.0 mg/kg/injection, schedule: Q01DX005 (ip), vehicle: Klucel (hydroxypropylcellulose) (HPC)) was 90 % of control and the T/C (dose: 240.0 mg/kg/injection, schedule: Q01DX005 (ip), vehicle: Klucel (hydroxypropylcellulose) (HPC)) was 88 % of control.
For `O=c1[nH]cc(B(O)O)c(=O)[nH]1`, the T/C (dose: 100.0 mg/kg/injection, schedule: Q01DX009 (ip), vehicle: saline) was 106 % of control, the T/C (dose: 200.0 mg/kg/injection, schedule: Q01DX009 (ip), vehicle: saline) was 113 % of control and the T/C (dose: 400.0 mg/kg/injection, schedule: Q01DX009 (ip), vehicle: saline) was 113 % of control.
In the case of `C=C(C)C1CNC(C(=O)O)C1CC(=O)O` (configuration not stated), the T/C (dose: 6.25 mg/kg/injection, schedule: Q01DX009 (ip), vehicle: saline sonified) is reported as 105 % of control, the T/C (dose: 12.5 mg/kg/injection, schedule: Q01DX009 (ip), vehicle: saline sonified) is reported as 90 % of control and the T/C (dose: 25.0 mg/kg/injection, schedule: Q01DX009 (ip), vehicle: saline sonified) is reported as 100 % of control.
`Cc1oc(C)c2c1C(=O)N(C)C2=O` was tested, and the T/C [1] was 100 % of control, the T/C [2] was 100 % of control and the T/C (dose: 240.0 mg/kg/injection, schedule: Q01DX005 (ip), vehicle: saline with Tween-80) was 103 % of control.
`CC1=N/C(=C\C=C\c2ccccc2)C(=O)O1` was tested, and the T/C [3] was 104 % of control, the T/C [4] was 101 % of control and the T/C [5] was 103 % of control.
With `Cc1nc(-c2ccccc2)nc2c1nc(Cc1ccccc1)n2Nc1ccccc1` the T/C (dose: 100.0 mg/kg/injection, schedule: Q01DX001 (ip), vehicle: Klucel (hydroxypropylcellulose) (HPC)) was 87 % of control, the T/C (dose: 200.0 mg/kg/injection, schedule: Q01DX001 (ip), vehicle: Klucel (hydroxypropylcellulose) (HPC)) was 91 % of control and the T/C (dose: 400.0 mg/kg/injection, schedule: Q01DX001 (ip), vehicle: Klucel (hydroxypropylcellulose) (HPC)) was 87 % of control.
For `N#CCCN(CCC#N)P(=O)(N(CCC#N)CCC#N)N(CCC#N)CCC#N`, the T/C (dose: 50.0 mg/kg/injection, schedule: Q01DX005 (ip), vehicle: Klucel (hydroxypropylcellulose) (HPC)) was 100 % of control, the T/C (dose: 100.0 mg/kg/injection, schedule: Q01DX005 (ip), vehicle: Klucel (hydroxypropylcellulose) (HPC)) was 96 % of control and the T/C (dose: 200.0 mg/kg/injection, schedule: Q01DX005 (ip), vehicle: Klucel (hydroxypropylcellulose) (HPC)) was 100 % of control.
In the case of `CCc1cccc(C)c1NC(=O)C(=O)C(C#N)c1ccc(CC#N)cc1` (configuration not stated), the T/C [1] is reported as 101 % of control and the T/C [2] is reported as 100 % of control.
With `C[n+]1c(-c2cccc(OCCOCCOCCOc3cccc(-c4c5cc(N)ccc5c5ccc(N)cc5[n+]4C)c3)c2)c2cc(N)ccc2c2ccc(N)cc21` the T/C (dose: 0.39 mg/kg/injection, schedule: Q01DX009 (ip), vehicle: water) was 111 % of control and the T/C (dose: 0.78 mg/kg/injection, schedule: Q01DX009 (ip), vehicle: water) was 104 % of control.
In the case of `O=C(CCCCCCCCC(=O)Nc1ccccc1)Nc1ccccc1`, the T/C (dose: 50.0 mg/kg/injection, schedule: Q01DX001 (ip), vehicle: saline with Tween-80) is reported as 103 % of control, the T/C (dose: 100.0 mg/kg/injection, schedule: Q01DX001 (ip), vehicle: saline with Tween-80) is reported as 103 % of control and the T/C (dose: 200.0 mg/kg/injection, schedule: Q01DX001 (ip), vehicle: saline with Tween-80) is reported as 100 % of control. The T/C (dose: 400.0 mg/kg/injection, schedule: Q01DX001 (ip), vehicle: saline with Tween-80) was 108 % of control.
`CC1=C2CC(C)(C)/C=C\C(=O)/C(C)=C\C3=CC(C)(O)CC3(O2)C1=O` (configuration not stated) was tested, and the T/C (dose: 0.92 mg/kg/injection, schedule: Q01DX009 (ip), vehicle: saline with Tween-80) was 102 % of control, the T/C (dose: 1.25 mg/kg/injection, schedule: Q01DX009 (ip), vehicle: Klucel (hydroxypropylcellulose) (HPC)) was 109 % of control and the T/C (dose: 1.84 mg/kg/injection, schedule: Q01DX009 (ip), vehicle: saline with Tween-80) was 98 % of control. The T/C (dose: 2.5 mg/kg/injection, schedule: Q01DX009 (ip), vehicle: Klucel (hydroxypropylcellulose) (HPC)) was 120 % of control, the T/C (dose: 3.67 mg/kg/injection, schedule: Q01DX009 (ip), vehicle: saline with Tween-80) was 116 % of control and the T/C (dose: 5.0 mg/kg/injection, schedule: Q01DX009 (ip), vehicle: Klucel (hydroxypropylcellulose) (HPC)) was 118 % of control. For the same compound, the T/C (dose: 7.34 mg/kg/injection, schedule: Q01DX009 (ip), vehicle: saline with Tween-80) was 118 % of control and the T/C (dose: 10.0 mg/kg/injection, schedule: Q01DX009 (ip), vehicle: Klucel (hydroxypropylcellulose) (HPC)) was 120 % of control.
In the case of `CC1(C)SSCC1=O`, the T/C [3] is reported as 104 % of control, the T/C [4] is reported as 109 % of control and the T/C [5] is reported as 108 % of control.
In the case of `CN(C)c1ccc(C=Nc2ccc(OCCCCCCCCCCC(=O)O)cc2)cc1`, the T/C (dose: 50.0 mg/kg/injection, schedule: Q01DX009 (ip), vehicle: saline with Tween-80) is reported as 93 % of control, the T/C [6] is reported as 88 % of control and the T/C [7] is reported as 90 % of control.
For `CCOC(OCC)C(=O)OCC(=O)[C@]1(O)Cc2c(O)c3c(c(O)c2[C@@H](OC2CC(N)C(O)C(C)O2)C1)C(=O)c1c(OC)cccc1C3=O` (some centres not stated), the T/C (dose: 0.13 mg/kg/injection, schedule: Q03HX008 (ip), vehicle: saline) was 111 % of control, the T/C (dose: 0.25 mg/kg/injection, schedule: Q03HX008 (ip), vehicle: saline) was 117 % of control and the T/C (dose: 0.5 mg/kg/injection, schedule: Q01DX009 (ip), vehicle: saline) was 160 % of control. The T/C (dose: 1.0 mg/kg/injection, schedule: Q01DX001 (ip), vehicle: saline) was 118 % of control, the T/C (dose: 1.0 mg/kg/injection, schedule: Q01DX009 (ip), vehicle: saline) was 173 % of control and the T/C (dose: 2.0 mg/kg/injection, schedule: Q01DX001 (ip), vehicle: saline) was 123 % of control. The T/C (dose: 2.0 mg/kg/injection, schedule: Q01DX009 (ip), vehicle: saline) was 245 % of control, the T/C (dose: 4.0 mg/kg/injection, schedule: Q01DX009 (ip), vehicle: saline) was 198 % of control and the T/C (dose: 4.0 mg/kg/injection, schedule: Q03HX008 (ip), vehicle: saline) was 168 % of control. The T/C (dose: 8.0 mg/kg/injection, schedule: Q03HX008 (ip), vehicle: saline) was 88 % of control, the T/C (dose: 16.0 mg/kg/injection, schedule: Q01DX001 (ip), vehicle: saline) was 170 % of control and the T/C (dose: 32.0 mg/kg/injection, schedule: Q01DX001 (ip), vehicle: saline) was 189 % of control. The T/C (dose: 64.0 mg/kg/injection, schedule: Q01DX001 (ip), vehicle: saline) was 87 % of control.
For `COc1ccc2c(c1)OC/C(=C\c1ccc([N+](=O)[O-])o1)C2=O`, the T/C [6] was 91 % of control, the T/C [7] was 86 % of control and the T/C (dose: 400.0 mg/kg/injection, schedule: Q01DX009 (ip), vehicle: saline with Tween-80) was 92 % of control.
In the case of `COc1ccc(-c2nccc3cc(OC)c(OC)cc23)cc1OC`, the T/C (dose: 6.25 mg/kg/injection, schedule: Q01DX009 (ip), vehicle: water) is reported as 100 % of control, the T/C (dose: 12.5 mg/kg/injection, schedule: Q01DX009 (ip), vehicle: water) is reported as 103 % of control and the T/C (dose: 25.0 mg/kg/injection, schedule: Q01DX009 (ip), vehicle: water) is reported as 106 % of control. For the same compound, the T/C (dose: 50.0 mg/kg/injection, schedule: Q01DX009 (ip), vehicle: water) was 118 % of control.
With `COC(=O)C(c1c(O)cc(C)oc1=O)C(C(=O)OC)c1c(O)cc(C)oc1=O` (configuration not stated) the T/C (dose: 100.0 mg/kg/injection, schedule: Q04DX003 (ip), vehicle: Klucel (hydroxypropylcellulose) (HPC)) was 96 % of control, the T/C (dose: 200.0 mg/kg/injection, schedule: Q04DX003 (ip), vehicle: Klucel (hydroxypropylcellulose) (HPC)) was 95 % of control and the T/C (dose: 400.0 mg/kg/injection, schedule: Q04DX003 (ip), vehicle: Klucel (hydroxypropylcellulose) (HPC)) was 96 % of control.
